Results on three compounds are retold here after US5674886A, “Triazolylated teritiary amine compound or salt thereof” (Yamanouchi Pharmaceutical Co., Ltd., priority 1991, dated 1997).

The IC50 is the concentration that gives 50% inhibition.

Data set [1] has as its target T1, aromatase from human placental microsomes (Homo sapiens, UniProt P11511).
T1 construct: in human placenta microsomes; from tissue; host or cells: human placenta, microsomes
T1 sequence (P11511 1-503): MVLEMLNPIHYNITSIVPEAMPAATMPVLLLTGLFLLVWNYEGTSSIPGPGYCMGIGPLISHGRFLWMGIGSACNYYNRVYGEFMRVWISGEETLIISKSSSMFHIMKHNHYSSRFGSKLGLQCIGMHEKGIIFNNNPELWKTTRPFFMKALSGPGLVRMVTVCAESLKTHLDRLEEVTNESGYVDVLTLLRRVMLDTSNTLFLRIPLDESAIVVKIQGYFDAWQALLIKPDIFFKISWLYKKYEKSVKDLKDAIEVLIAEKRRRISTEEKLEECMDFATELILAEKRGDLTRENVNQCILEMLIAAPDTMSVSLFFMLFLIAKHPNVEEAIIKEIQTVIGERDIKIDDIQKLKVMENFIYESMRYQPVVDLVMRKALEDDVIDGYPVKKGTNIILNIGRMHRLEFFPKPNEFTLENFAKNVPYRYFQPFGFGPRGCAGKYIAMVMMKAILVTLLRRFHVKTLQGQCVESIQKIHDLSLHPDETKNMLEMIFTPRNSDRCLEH
Put plainly: In vitro inhibition of aromatase in human placenta microsomes. Type of data set: biochemical. The conditions noted are these: [1,2-3H] androstenedione. How it is done: (b) Inhibition of aromatase obtained from human placenta
The activity was measured in accordance with the method described in Endocrine Research, 16 (2) 253 (1990).
The inhibition activity of the compound was determined based on the inhibition of ^3 H2 O to be released from [1,2-^3 H] androstenedione in human placenta microsomes.
1. In vitro inhibition of aromatase in human placenta microsomes:
IC50 value for ex vivo inhibition of aromatase from human placental microsomes was obtained in accordance with the above-mentioned experimental method (1-b), and the results obtained are shown in Table 1.

Another data set concerns aldosterone production. Put plainly: In vivo inhibition of aldosterone production in rats (ACTH-stimulated blood aldosterone). More on the design: species or system rat. Particulars: 100 mg/kg, five rats, one-way ANOVA. How it is done:
(b) In vivo inhibition of aldosterone production in rats:
The inhibitory activity was measured in accordance with the method described in J. Steroid Biochem., 34 567 (1989). The inhibitory activity of a test compound was determined based on inhibition of the blood aldosterone to be increased by stimulation by ACTH in rats. The amount of aldosterone was measured by RIA.
3. In vivo inhibition of aldosterone production in rats:
By the above-mentioned experimental method (4-b), aldosterone production inhibitory activity in rats was measured.
The statistical significance of value was analyzed by using one-way ANOVA. The results mean that the compounds of the present invention are highly safe compounds with few harmful side effects also in the in vivo test as well.

Data set [2] deals with cortisol production, rabbit adrenal cultured cells. Put plainly: In vitro inhibition of cortisol production (ACTH-stimulated rabbit adrenal cultured cells). It is filed as cell-based. The conditions noted are these: Oryctolagus cuniculus. How it is done:
(5) In vitro inhibition of cortisol production:
The inhibitory activity was measured in accordance with the method described in Endocrinology, 114 (2) 486 (1984). The inhibitory activity of a test compound was determined based on inhibition of the cortisol production produced by stimulation of first-generation of rabit adrenal cultured cells by ACTH. The amount of cortisol was measured by RIA.
4. In vitro inhibition of cortisol production in rabbit:
IC50 value of the compounds for in vitro inhibition of cortisol production was obtained by the above-mentioned experimental method (5), and the results obtained are shown in Table 3.

In data set [3] the target is T2, rat aromatase (rat ovarian microsomes) (Rattus norvegicus, UniProt P22443).
T2 construct: in rat ovarian microsomes; from tissue; host or cells: rat ovary, microsomes
T2 sequence (P22443 1-508): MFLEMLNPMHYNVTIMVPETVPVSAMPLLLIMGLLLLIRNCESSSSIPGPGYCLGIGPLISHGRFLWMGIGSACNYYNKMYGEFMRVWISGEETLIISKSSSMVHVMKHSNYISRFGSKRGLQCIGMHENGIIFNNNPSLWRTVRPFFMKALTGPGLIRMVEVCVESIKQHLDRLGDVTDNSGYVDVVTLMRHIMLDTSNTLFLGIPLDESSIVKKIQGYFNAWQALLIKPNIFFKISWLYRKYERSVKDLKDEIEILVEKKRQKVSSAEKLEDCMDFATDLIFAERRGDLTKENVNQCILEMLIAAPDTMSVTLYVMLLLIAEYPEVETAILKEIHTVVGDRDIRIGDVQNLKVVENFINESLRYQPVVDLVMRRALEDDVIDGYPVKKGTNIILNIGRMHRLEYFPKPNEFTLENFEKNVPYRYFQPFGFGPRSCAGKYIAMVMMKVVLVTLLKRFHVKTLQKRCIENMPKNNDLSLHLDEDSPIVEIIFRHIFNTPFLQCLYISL
Put plainly: In vitro inhibition of aromatase obtained from rat ovary. It is filed as biochemical. How it is done: (a) Inhibition of aromatase obtained from rat ovary:
The activity was measured in accordance with the method described in J. Biol. Chem., 249 5364 (1974).
The IC50 value of the test compound on aromatase inhibition was determined based on inhibition of ^3 H2 O to be released from [1,2-^3 H] androstenedione in rat ovarian microsomes.
(§1) 2. Selectivity of In vitro inhibition of rat ovarian aromatase and in vitro aldosterone production in rat:
(§2) IC50 values for in vitro inhibition of rat aromatase and […] inhibition of rat aldosterone production were measured in accordance with the above-mentioned experimental methods (1-a) and (4-a), respectively. The selectivity indicates a ratio of IC50 value for rat aldosterone production to IC50 value for rat aromatase.

For data set [4], the system named is aldosterone production, rat adrenal cultured cells. Put plainly: In vitro inhibition of aldosterone production (ACTH-stimulated rat adrenal cultured cells). Particulars: read-out: IC50, Rat aldosterone inhibitory activity (B). Type of data set: cell-based. How it is done:
(a) In vitro inhibition of aldosterone production:
The activity was measured in accordance with the method described in J. Vet. Pharmacol. Therap., 11 345 (1988). The inhibition activity of the test compound was determined based on the inhibition of aldosterone production produced by stimulation of first-generation of rat adrenal cultured cells by ACTH. The amount of aldosterone was measured by RIA.
as §1, §2

The nature of data set [5]: Metabolism: plasma concentration of the non-changed compound after oral administration to rats. Particulars: rat, 3 mg/kg oral. Type of data set: in vivo. The text has this: From the results, it is understood that the compound of the present invention has an excellent oral absorbability and that the effect of the absorbed compound lasts long. Thus, the compound has a good profile as a medicine.

Turning to `O=[N+]([O-])c1ccc(CN(c2ccc([N+](=O)[O-])cc2)n2cnnc2)cc1` [Example 10, 4-[N-(4-nitrobenzyl)-N-(4-nitrophenyl)amino]-4H-1,2,4-triazole], the IC50 worked out at 0.11 nM in data set [1] and 7 µM in data set [2]. For the same compound, in the data set with aldosterone production, the “inhibition of aldosterone production in rats (significance)” value (from here on “inhibition … (significance)”) is recorded as “did not inhibit aldosterone production significantly”.
As for `O=[N+]([O-])c1ccc(N(Cc2ccc(Br)cc2)n2cnnc2)cc1` [Example 12, 4-[N-(4-bromobenzyl)-N-(4-nitrophenyl)amino]-4H-1,2,4-triazole], the IC50 in data set [1] is 0.03 nM. In the data set on aldosterone production, the “inhibition … (significance)” value was “did not inhibit aldosterone production significantly”.
For the compound `N#Cc1ccc(N(Cc2ccc(Br)cc2)n2cnnc2)cc1` [Example 15, 4-[N-(4-bromobenzyl)-N-(4-cyanophenyl)amino]-4H-1,2,4-triazole], the IC50 was 0.13 nM in data set [1]; 0.37 nM in data set [3] (rat ovarian microsomes, in vitro, read-out: IC50, Rat aromatase inhibitory activity (A)); 2250 nM in data set [4]; 4 µM in data set [2]. Moreover, the “Selectivity (B/A)” value in data set [3] (ratio of IC50 for rat aldosterone production to IC50 for rat aromatase) worked out at 6100. Also, the “inhibition … (significance)” value in the data set on aldosterone production is recorded as “did not inhibit aldosterone production significantly”. In addition, the half-life in data set [5] (read-out: extinction half time (T1/2) (converted)) was 660 min. In addition, the Cmax in data set [5] (read-out: maximum value (Cmax) of the concentration of the non-changed compound in the plasma) was determined as 2880 ng/mL.
